In PubChem BioAssay (NCI):
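A five-concentration, 48-hour dose response in 96-well plates underlies each endpoint, interpolated linearly between surrounding concentrations. GI50 is the concentration that inhibits growth by half. TGI is the concentration that stops growth completely.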

Legend:
Assay in all cases: DTP human tumour cell line panel, 48 h; in the data active means GI50 below about 0.43 µM; inactive means the rest
[1] = system: OVCAR-4 ovarian
[2] = system: HL-60(TB) leukemia
[3] = system: SK-MEL-5 melanoma
[4] = system: T-47D breast
[5] = system: CCRF-CEM leukemia
[6] = system: OVCAR-5 ovarian
[7] = system: NCI-H226 lung
[8] = system: SK-OV-3 ovarian
[9] = system: DU-145 prostate
[10] = system: SN12C renal
[11] = system: SK-MEL-28 melanoma
[12] = system: MDA-MB-435
[13] = system: HS 578T breast
[14] = system: SNB-75 CNS
[15] = system: MDA-N
[16] = system: HCT-116 colon
[17] = system: NCI/ADR-RES ovarian
[18] = system: HT29 colon
[19] = system: TK-10 renal
[20] = system: UO-31 renal
[21] = system: HCT-15 colon
[22] = system: SF-268 CNS
[23] = system: SF-539 CNS
[24] = system: CAKI-1 renal
[25] = system: NCI-H522 lung
[26] = system: MOLT-4 leukemia
[27] = system: ACHN renal
[28] = system: K-562 leukemia
[29] = system: SF-295 CNS
[30] = system: M14 melanoma
[31] = system: U251 CNS
[32] = system: LOX IMVI melanoma
[33] = system: SW-620 colon
[34] = system: MALME-3M melanoma
[35] = system: MDA-MB-231 breast
[36] = system: OVCAR-8 ovarian
[37] = system: RXF 393 renal
[38] = system: SR leukemia
[39] = system: 786-0 renal
[40] = system: MCF7 breast
[41] = system: IGROV1 ovarian
[42] = system: A498 renal
[43] = system: NCI-H23 lung
[44] = system: COLO 205 colon
[45] = system: KM12 colon
[46] = system: NCI-H460 lung
[47] = system: SNB-19 CNS
[48] = system: EKVX NSCLC
[49] = system: HCC-2998 colon
[50] = system: A549 NSCLC
[51] = system: UACC-257 melanoma
[52] = system: HOP-92 NSCLC
[53] = system: RPMI-8226 leukemia
[54] = system: UACC-62 melanoma
[55] = system: BT-549 breast
[56] = system: HOP-62 NSCLC
[57] = system: PC-3 prostate
[58] = system: OVCAR-3 ovarian
[59] = system: SK-MEL-2 melanoma

Nc1c(N2CCCCC2)c(=O)nc2[nH]/c(=C\c3ccccc3)c(=O)n12
> 100 µM: TGI [1] | TGI [2] | TGI [3] | TGI [4] | TGI [5] | TGI [6] | TGI [7] | TGI [8] | TGI [9] | TGI [10] | TGI [11] | TGI [12] | TGI [13] | TGI [14] | TGI [15] | TGI [16] | TGI [17] | TGI [18] | TGI [19] | TGI [20] | TGI [21] | TGI [22] | TGI [23] | TGI [24] | TGI [25] | TGI [26] | TGI [27] | TGI [28] | TGI [29] | TGI [30] | TGI [31] | TGI [32] | TGI [33] | TGI [34] | TGI [35] | TGI [36] | TGI [37] | TGI [38] | TGI [39] | TGI [40] | TGI [41] | TGI [42] | TGI [43] | TGI [44] | TGI [45] | TGI [46] | TGI [47] | TGI [48] | TGI [49] | TGI [50] | TGI [51] | TGI [52] | TGI [53]

CCN(CC)CCCC(C)Nc1cc(/C=C/c2ccc(Cl)cc2)nc2cc(N(C)C)ccc12 (configuration not stated)
2.65 µM: TGI [18]
3.09 µM: TGI [30]
3.21 µM: TGI [9]
6.54 µM: TGI [54]
4.65 µM: TGI [23]
3.06 µM: TGI [12] | TGI [37]
4.34 µM: TGI [3]
3.55 µM: TGI [4] | TGI [20]
2.69 µM: TGI [33]
3.33 µM: TGI [29]
2.49 µM: TGI [16]
3.01 µM: TGI [55] | TGI [15] | TGI [26]
3.49 µM: TGI [58]
3.26 µM: TGI [45]
4.42 µM: TGI [27]
3.16 µM: TGI [52]
3.12 µM: TGI [42]
3.34 µM: TGI [48]
3.57 µM: TGI [49]
2.78 µM: TGI [57]
3.37 µM: TGI [6]
3.3 µM: TGI [47]
3.4 µM: TGI [56]
2.85 µM: TGI [38]
3.25 µM: TGI [10]
3.19 µM: TGI [31]
11.6 µM: TGI [7]
3.54 µM: TGI [2] | TGI [19]
3.17 µM: TGI [21]
3.39 µM: TGI [40]
3.41 µM: TGI [36]

O=C(Cn1c(C(=O)c2ccccc2)nc2ccccc21)c1ccc(F)cc1
> 28.1 µM: TGI [26]
> 56.9 µM: TGI [37]
> 74 µM: TGI [59]
> 76 µM: TGI [46]
> 43.7 µM: TGI [42]
> 64.5 µM: TGI [44]
inactive: GI50 [1] 24.6 µM | GI50 [2] 1.65 µM | GI50 [3] 4.13 µM | GI50 [4] 3.38 µM | GI50 [5] 5.75 µM | GI50 [6] > 100 µM | GI50 [7] > 100 µM | GI50 [8] 32.7 µM | GI50 [9] > 48.7 µM | GI50 [10] > 30.7 µM | GI50 [11] 7.07 µM | GI50 [12] 1.19 µM | GI50 [54] 11.7 µM | GI50 [13] 11.5 µM | GI50 [55] 9.76 µM | GI50 [14] 10.5 µM | GI50 [56] 9.44 µM | GI50 [16] 3.28 µM | GI50 [17] 3.47 µM | GI50 [18] 3.51 µM | GI50 [19] 14.2 µM | GI50 [20] > 43.8 µM | GI50 [57] 13.6 µM | GI50 [21] 3.56 µM | GI50 [22] 19.6 µM | GI50 [23] 16 µM | GI50 [25] 5.92 µM | GI50 [26] 2.49 µM | GI50 [27] > 59.7 µM | GI50 [28] 2.86 µM | GI50 [29] 9.44 µM | GI50 [30] 3.67 µM | GI50 [31] 4.11 µM | GI50 [32] 7.26 µM | GI50 [59] 17.4 µM | GI50 [33] 3.28 µM | GI50 [34] 11.1 µM | GI50 [35] 15.7 µM | GI50 [36] 37.4 µM | GI50 [37] 7.29 µM | GI50 [38] 1.21 µM | GI50 [39] 20.8 µM | GI50 [40] 3.27 µM | GI50 [41] 10.9 µM | GI50 [58] 3.39 µM | GI50 [42] 4.86 µM | GI50 [43] 19.4 µM | GI50 [44] 17.9 µM | GI50 [45] 2.48 µM | GI50 [46] 12 µM | GI50 [47] 25.2 µM | GI50 [48] 21.1 µM | GI50 [49] 6.41 µM | GI50 [50] 22.9 µM | GI50 [51] 74.3 µM | GI50 [52] 60.2 µM | GI50 [53] 3.47 µM
> 52.5 µM: TGI [53]
> 82.2 µM: TGI [3]
> 25.5 µM: TGI [58]
5.9 µM: TGI [2]
> 62.9 µM: TGI [25]
> 72 µM: TGI [40]
> 30.9 µM: TGI [24]
> 29.4 µM: TGI [17]
> 100 µM: TGI [1] | TGI [4] | TGI [5] | TGI [6] | TGI [7] | TGI [8] | TGI [9] | TGI [10] | TGI [11] | TGI [54] | TGI [13] | TGI [55] | TGI [14] | TGI [56] | TGI [16] | TGI [18] | TGI [19] | TGI [20] | TGI [57] | TGI [21] | TGI [22] | TGI [23] | TGI [27] | TGI [28] | TGI [29] | TGI [30] | TGI [31] | TGI [32] | TGI [33] | TGI [34] | TGI [35] | TGI [36] | TGI [39] | TGI [41] | TGI [43] | TGI [45] | TGI [47] | TGI [48] | TGI [49] | TGI [50] | TGI [51] | TGI [52]
